Measured values published in PubChem BioAssay (NCI).
Several values for one entry are separate records, joined by “and”; a condition that tells them apart may be missing. Equal values may be shown once.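 Cultured in 96-well plates, cells were exposed to test compound for 48 hours across five concentrations. Abbreviation: GI50, concentration required for 50% inhibition of growth. Definition used: TGI = concentration required for complete inhibition of growth.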

Tests used:
Assay in all cases: NCI anticancer screen, dose series, 48 h; in the data active means GI50 below about 0.43 µM; inactive means the rest
[1] = system: NCI-H460 lung
[2] = system: UACC-62 melanoma
[3] = system: NCI-H522 lung
[4] = system: CAKI-1 renal
[5] = system: BT-549 breast
[6] = system: LOX IMVI melanoma
[7] = system: HCT-116 colon
[8] = system: EKVX NSCLC
[9] = system: SK-MEL-2 melanoma
[10] = system: KM12 colon
[11] = system: SK-OV-3 ovarian
[12] = system: MOLT-4 leukemia
[13] = system: DU-145 prostate
[14] = system: A498 renal
[15] = system: MDA-N
[16] = system: HS 578T breast
[17] = system: A549 NSCLC
[18] = system: SK-MEL-28 melanoma
[19] = system: SN12C renal
[20] = system: OVCAR-3 ovarian
[21] = system: HT29 colon
[22] = system: U251 CNS
[23] = system: HCC-2998 colon
[24] = system: SF-539 CNS
[25] = system: UO-31 renal
[26] = system: NCI-H23 lung
[27] = system: SNB-75 CNS
[28] = system: CCRF-CEM leukemia
[29] = system: HOP-62 NSCLC
[30] = system: MALME-3M melanoma
[31] = system: MDA-MB-435
[32] = system: MDA-MB-231 breast
[33] = system: NCI-H226 lung
[34] = system: OVCAR-5 ovarian
[35] = system: TK-10 renal
[36] = system: SF-268 CNS
[37] = system: M14 melanoma
[38] = system: OVCAR-4 ovarian
[39] = system: RPMI-8226 leukemia
[40] = system: MCF7 breast
[41] = system: PC-3 prostate
[42] = system: IGROV1 ovarian
[43] = system: NCI/ADR-RES ovarian
[44] = system: HCT-15 colon
[45] = system: HL-60(TB) leukemia
[46] = system: 786-0 renal
[47] = system: RXF 393 renal
[48] = system: OVCAR-8 ovarian
[49] = system: SR leukemia
[50] = system: SF-295 CNS
[51] = system: SK-MEL-5 melanoma
[52] = system: SW-620 colon
[53] = system: COLO 205 colon
[54] = system: T-47D breast
[55] = system: ACHN renal
[56] = system: HOP-92 NSCLC
[57] = system: K-562 leukemia
[58] = system: SNB-19 CNS
[59] = system: UACC-257 melanoma

CCOc1ccccc1N=NC1C(=O)N(C(=O)CC(=O)Nc2ccccc2C)N=C1C (configuration not stated)
56.1 µM: TGI [11]
49.1 µM: TGI [22]
54.6 µM: TGI [27]
41.5 µM: TGI [29]
31.5 µM: TGI [16]
89.4 µM: TGI [47]
40.8 µM: TGI [56]
43.7 µM: TGI [8]
36 µM: TGI [50]
63.6 µM: TGI [25] | TGI [36]
> 100 µM: TGI [1] | TGI [2] | TGI [3] | TGI [4] | TGI [5] | TGI [6] | TGI [7] | TGI [9] | TGI [10] | TGI [12] | TGI [13] | TGI [14] | TGI [15] | TGI [17] | TGI [18] | TGI [19] | TGI [20] | TGI [21] | TGI [23] | TGI [24] | TGI [26] | TGI [28] | TGI [30] | TGI [31] | TGI [32] | TGI [33] | TGI [34] | TGI [35] | TGI [37] | TGI [38] | TGI [39] | TGI [40] | TGI [41] | TGI [42] | TGI [43] | TGI [44] | TGI [45] | TGI [46] | TGI [48] | TGI [49] | TGI [51] | TGI [52] | TGI [53] | TGI [54] | TGI [55]

Nc1nc2cc(Cl)ccc2n1N
> 100 µM: TGI [2] | TGI [57] | TGI [3] | TGI [4] | TGI [5] | TGI [6] | TGI [7] | TGI [8] | TGI [10] | TGI [11] | TGI [12] | TGI [13] | TGI [14] | TGI [15] | TGI [16] | TGI [17] | TGI [18] | TGI [19] | TGI [21] | TGI [58] | TGI [22] | TGI [23] | TGI [24] | TGI [25] | TGI [26] | TGI [27] | TGI [28] | TGI [59] | TGI [29] | TGI [30] | TGI [31] | TGI [32] | TGI [33] | TGI [34] | TGI [35] | TGI [36] | TGI [37] | TGI [39] | TGI [40] | TGI [41] | TGI [42] | TGI [44] | TGI [45] | TGI [46] | TGI [47] | TGI [48] | TGI [49] | TGI [50] | TGI [51] | TGI [52] | TGI [53] | TGI [54] | TGI [55]

N#Cc1ccc(-c2ccc(Cl)cc2)n(C2OC(CO)C(O)C(O)C2O)c1=S (configuration not stated)
inactive: GI50 [3] > 100 µM and 15.5 µM | GI50 [5] > 100 µM and 24.9 µM | GI50 [8] > 100 µM and 33.7 µM | GI50 [9] > 100 µM and 10.6 µM | GI50 [14] > 100 µM and 18.9 µM | GI50 [58] > 100 µM and 26.4 µM | GI50 [22] > 100 µM and 20 µM | GI50 [26] > 100 µM and 31.8 µM | GI50 [27] 43.1 µM and 19.8 µM | GI50 [28] > 100 µM | GI50 [35] > 100 µM and 49 µM | GI50 [36] > 100 µM and 39.6 µM | GI50 [42] > 100 µM and 28 µM | GI50 [47] > 100 µM and 18.7 µM | GI50 [56] > 100 µM and 14.6 µM
> 100 µM and 36.3 µM: TGI [29]
> 100 µM and 52.5 µM: TGI [9]
> 100 µM and 51 µM: TGI [47]
> 100 µM: TGI [1] | TGI [2] | TGI [57] | TGI [3] | TGI [4] | TGI [5] | TGI [6] | TGI [7] | TGI [8] | TGI [10] | TGI [12] | TGI [13] | TGI [15] | TGI [16] | TGI [17] | TGI [18] | TGI [19] | TGI [20] | TGI [21] | TGI [58] | TGI [22] | TGI [23] | TGI [24] | TGI [25] | TGI [26] | TGI [27] | TGI [28] | TGI [59] | TGI [30] | TGI [32] | TGI [33] | TGI [34] | TGI [35] | TGI [36] | TGI [37] | TGI [38] | TGI [39] | TGI [40] | TGI [41] | TGI [42] | TGI [44] | TGI [45] | TGI [46] | TGI [48] | TGI [49] | TGI [51] | TGI [52] | TGI [54] | TGI [55]
> 100 µM and 17.9 µM: TGI [50]
> 100 µM and 57.5 µM: TGI [14]
> 100 µM and 51.5 µM: TGI [56]

Cc1cc(N(CCC#N)CCC#N)ccc1/C(N=Nc1ccc(C(=O)O)cc1)=N\NC(=O)c1ccccc1
> 100 µM: TGI [1] | TGI [2] | TGI [57] | TGI [4] | TGI [5] | TGI [7] | TGI [8] | TGI [9] | TGI [10] | TGI [11] | TGI [12] | TGI [13] | TGI [15] | TGI [17] | TGI [19] | TGI [58] | TGI [22] | TGI [23] | TGI [25] | TGI [26] | TGI [27] | TGI [28] | TGI [59] | TGI [29] | TGI [30] | TGI [31] | TGI [32] | TGI [33] | TGI [34] | TGI [35] | TGI [36] | TGI [37] | TGI [38] | TGI [39] | TGI [40] | TGI [41] | TGI [42] | TGI [43] | TGI [44] | TGI [46] | TGI [47] | TGI [48] | TGI [49] | TGI [50] | TGI [51] | TGI [53] | TGI [54] | TGI [55]
57 µM: TGI [24]
84.4 µM: TGI [14]
55.5 µM: TGI [16]
38.5 µM: TGI [3]
41.2 µM: TGI [21]
